{
  "source": "patent US11767316B2",
  "about": "“Non-fused thiophene derivatives and their uses” (ENYO PHARMA, priority 2018, dated 2023)",
  "key": {"[1]": {"molecular_target": "T1, CISD2 Gene Product (NAF-1) (Homo sapiens, UniProt Q8N5K1)", "T1 sequence (Q8N5K1 57-135 limits assumed)": "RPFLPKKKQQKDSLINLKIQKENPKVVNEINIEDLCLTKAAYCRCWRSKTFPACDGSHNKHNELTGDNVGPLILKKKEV", "assay": "Stability of Fe-S cluster binding of purified NEET protein (absorbance 458 nm), NAF-1", "type": "biochemical", "experimental": "The modulator effect on the NEET proteins encoded by human CISD1, CISD2, and CISD3 genes by the compounds of the invention has been tested and is reported below. Particularly, the biochemical function of the NEET proteins is measured by the stability of Fe—S cluster binding of the purified NEET proteins.\nThe Fe—S cluster binding capacity of NEET proteins is known to be coordinated by four amino-acids in a stretch of 16 (three Cysteine and one Histidine). As the lability of the Fe—S cluster of NEET proteins is sensitive to the environment, cluster stability measurements are one of the measures of interactions of NEET proteins with small molecules and compounds. NEET protein/2Fe-2S cluster stability can be assessed by monitoring the decay in absorbance of its characteristic 458-nm peak (characteristic of the oxidized 2Fe-2S cluster) over time. Each NEET protein (mitoNEET, NAF-1 and Miner 2) was tested for its Fe—S binding in the absence or presence of a compound according to the invention (see table 3 below). […]\nAt pH 6, all the three NEET proteins (mitoNEET, NAF-1 and Miner 2) have a characteristic rate of loss of the bound Fe—S cluster that can be measured by the decrease of absorbance at wavelength 458 nm over time, using a spectrophotometer. […]\nA reaction mix containing DMSO diluted in the Bis-Tris Buffer with or without a compound of the invention was prepared. […] The absorbance at wavelength 458 nm was taken at 5 minutes intervals at 37° C. with a spectrofluorimeter. […]\nIn addition to time monitoring, residual bound Fe—S cluster to NEET protein was measured at the final point of the spectrometry assay for each Test sample and compared to the Control sample data (in parenthesis table 3). This residual binding is measured by the differential percentage between the absorbance 458 nm at time zero and the absorbance 458 nm at the end of the experiment (i.e. respectively 500 or 180 minutes as described hereabove), showing the percentage of NEET protein still able to bind a Fe—S cluster. […]"}, "MMXF L-363": {"test_system": "MMXF L-363", "assay": "Cytotoxicity, propidium iodide based monolayer assay, MMXF L-363", "type": "cell-based", "settings": "Homo sapiens, 96 h; MMXF L-363 (multiple myeloma), four days of treatment, T/C=50%; read-out: Absolute IC50", "experimental": "The cytotoxicity was tested for compounds of the invention on five different cell-lines, namely LXFL 1121, MAXF 401, MMXF L-636, PRXF PC-3M and UXF 1138 which are respectively lung large cell carcinoma, breast adeno carcinoma, multiple myeloma, prostate adeno carcinoma and uterine sarcoma.\nA working stock solution of the test compounds was prepared in DMSO at a concentration of 33 mM or 8.25 mM, and small aliquots were stored at −20° C. On each day of an experiment, a frozen aliquot of the working stock solution was thawed and stored at room temperature prior to and during treatment.\nAll liquid handling steps were performed using the Tecan Freedom EVO 200 platform. First, serial 2-fold dilutions of the 33 mM DMSO working stock solution were done in DMSO. […]\nA modified propidium iodide (PI) based monolayer assay was used to assess the anti-cancer activity of the compounds. Briefly, cells were harvested from exponential phase cultures, counted and plated in 96 well flat-bottom microtiter plates at a cell density of 4,000 to 40,000 cells/well dependent on the cell line's growth rate. […] After an incubation period of 1-2 hours at room temperature, fluorescence (FU) was measured using the Enspire Multimode Plate Reader (excitation λ=530 nm, emission λ=620 nm) to quantify the amount of attached viable cells. […]"}},
  "data": [
    {"smiles": "O=C(Nc1scc(C2CCc3ccccc3C2)c1C(=O)O)c1ccccc1", "note": "(stereo not shown) [#16]", "values": [
      {"measurement": "Time (in minutes) to achieve 50% loss of bound cluster (Absorbance 458 nm)", "setting": "[1]; NAF-1 20 μM, compound 60 μM, pH 6, 37° C., vehicle control 310", "value": "35 (310) minutes"},
      {"measurement": "Residual cluster bound at end of experiment (Percentage Absorbance 458 nm at time zero)", "setting": "[1]; NAF-1, end of experiment 500 minutes, compound 60 μM, pH 6, vehicle control 3%", "value": "4% (3%)"},
      {"measurement": "Stabiliser or destabiliser of NEET protein/Fe-S cluster binding", "setting": "[1]; NAF-1, destabiliser = time to 50% cluster loss decreased by more than 25% vs control", "value": "destabilisers"},
      {"measurement": "IC50", "setting": "MMXF L-363", "value": 357, "unit": "nM"}
    ]}
  ]
}
